Reference: PubChem BioAssay (NCI)
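Where inhibition never reached the appropriate level, the endpoint shown equals the highest concentration tested. Otherwise, values were interpolated linearly from a five-concentration, 48-hour dose response in 96-well plates. GI50 is the concentration that inhibits growth by half. TGI: concentration producing complete growth inhibition.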

Key:
Assay in all cases: inhibition of tumour cell growth, NCI panel, 48 h
[1] = tested on: 786-0 renal
[2] = tested on: A498 renal
[3] = tested on: A549 NSCLC
[4] = tested on: ACHN renal
[5] = tested on: BT-549 breast
[6] = tested on: CAKI-1 renal
[7] = tested on: CCRF-CEM leukemia
[8] = tested on: COLO 205 colon
[9] = tested on: DU-145 prostate
[10] = tested on: HCC-2998 colon
[11] = tested on: HCT-116 colon
[12] = tested on: HCT-15 colon
[13] = tested on: HL-60(TB) leukemia
[14] = tested on: HOP-62 NSCLC
[15] = tested on: HOP-92 NSCLC
[16] = tested on: HS 578T breast
[17] = tested on: HT29 colon
[18] = tested on: IGROV1 ovarian
[19] = tested on: K-562 leukemia
[20] = tested on: KM12 colon
[21] = tested on: LOX IMVI melanoma
[22] = tested on: M14 melanoma
[23] = tested on: MALME-3M melanoma
[24] = tested on: MCF7 breast
[25] = tested on: MDA-MB-231 breast
[26] = tested on: MDA-MB-435
[27] = tested on: MOLT-4 leukemia
[28] = tested on: NCI-H226 lung
[29] = tested on: NCI-H23 lung
[30] = tested on: NCI-H460 lung
[31] = tested on: NCI-H522 lung
[32] = tested on: NCI/ADR-RES ovarian
[33] = tested on: OVCAR-3 ovarian
[34] = tested on: OVCAR-4 ovarian
[35] = tested on: OVCAR-5 ovarian
[36] = tested on: OVCAR-8 ovarian
[37] = tested on: PC-3 prostate
[38] = tested on: RPMI-8226 leukemia
[39] = tested on: RXF 393 renal
[40] = tested on: SF-268 CNS
[41] = tested on: SF-295 CNS
[42] = tested on: SF-539 CNS
[43] = tested on: SK-MEL-2 melanoma
[44] = tested on: SK-MEL-28 melanoma
[45] = tested on: SK-MEL-5 melanoma
[46] = tested on: SK-OV-3 ovarian
[47] = tested on: SN12C renal
[48] = tested on: SNB-19 CNS
[49] = tested on: SNB-75 CNS
[50] = tested on: SR leukemia
[51] = tested on: SW-620 colon
[52] = tested on: T-47D breast
[53] = tested on: TK-10 renal
[54] = tested on: U251 CNS
[55] = tested on: UACC-257 melanoma
[56] = tested on: UACC-62 melanoma
[57] = tested on: UO-31 renal

O=C(Nc1ccccc1O)c1ccc(NS(=O)(=O)c2cccc3cccnc23)cc1
GI50 [1]: 2400 nM | TGI [1]: 6400 nM | GI50 [2]: 208 nM | TGI [2]: 1620 nM | GI50 [3]: 2030 nM | TGI [3]: 9020 nM | GI50 [4]: 1210 nM | TGI [4]: 5780 nM | GI50 [5]: 2790 nM | TGI [5]: 7940 nM | GI50 [6]: 998 nM | TGI [6]: 4800 nM | GI50 [7]: 1050 nM | TGI [7]: > 25000 nM | GI50 [8]: 1060 nM | TGI [8]: 4010 nM | GI50 [9]: 1270 nM | TGI [9]: 9550 nM | GI50 [10]: 1590 nM | TGI [10]: 5230 nM | GI50 [11]: 752 nM | TGI [11]: 3100 nM | GI50 [12]: 2080 nM | TGI [12]: 7710 nM | GI50 [13]: 1030 nM | TGI [13]: 12900 nM | GI50 [14]: 855 nM | TGI [14]: 7330 nM | GI50 [15]: 691 nM | TGI [15]: 3220 nM | GI50 [16]: 787 nM | TGI [16]: 11800 nM | GI50 [17]: 1180 nM | TGI [17]: > 16000 nM | GI50 [18]: 3060 nM | TGI [18]: 9950 nM | GI50 [19]: 971 nM | TGI [19]: > 25000 nM | GI50 [20]: 2730 nM | TGI [20]: 7290 nM | GI50 [21]: 1230 nM | TGI [21]: 4800 nM | GI50 [22]: 1180 nM | TGI [22]: 5610 nM | GI50 [23]: 827 nM | TGI [23]: > 25000 nM | GI50 [24]: 941 nM | TGI [24]: > 18200 nM | GI50 [25]: 2170 nM | TGI [25]: 7720 nM | GI50 [26]: 806 nM | TGI [26]: 4860 nM | GI50 [27]: 1210 nM | TGI [27]: > 25000 nM | GI50 [28]: 2360 nM | TGI [28]: 7270 nM | GI50 [29]: 2020 nM | TGI [29]: 13700 nM | GI50 [30]: 1050 nM | TGI [30]: 7280 nM | GI50 [31]: 670 nM | TGI [31]: 3470 nM | GI50 [32]: 788 nM | TGI [32]: 5960 nM | GI50 [33]: 1420 nM | TGI [33]: 5610 nM | GI50 [34]: 2240 nM | TGI [34]: 24500 nM | GI50 [35]: 744 nM | TGI [35]: > 12700 nM | GI50 [36]: 665 nM | TGI [36]: 7250 nM | GI50 [37]: 1460 nM | TGI [37]: 8250 nM | GI50 [38]: 464 nM | TGI [38]: > 9660 nM | GI50 [39]: 1720 nM | TGI [39]: 5810 nM | GI50 [40]: 1540 nM | TGI [40]: 8180 nM | GI50 [41]: 1090 nM | TGI [41]: 4770 nM | GI50 [42]: 760 nM | TGI [42]: 10100 nM | GI50 [43]: 806 nM | TGI [43]: 4350 nM | GI50 [44]: 834 nM | TGI [44]: 4910 nM | GI50 [45]: 838 nM | TGI [45]: 3420 nM | GI50 [46]: 1320 nM | TGI [46]: 6170 nM | GI50 [47]: 2780 nM | TGI [47]: > 19700 nM | GI50 [48]: 2890 nM | TGI [48]: > 14800 nM | GI50 [49]: 511 nM | TGI [49]: 8030 nM | GI50 [50]: 1310 nM | TGI [50]: 13900 nM | GI50 [51]: 810 nM | TGI [51]: 4880 nM | GI50 [52]: 559 nM | TGI [52]: 4160 nM | GI50 [53]: 704 nM | TGI [53]: 3450 nM | GI50 [54]: 1300 nM | TGI [54]: 5400 nM | GI50 [55]: 571 nM | TGI [55]: 5250 nM | GI50 [56]: 539 nM | TGI [56]: 3490 nM | GI50 [57]: 730 nM | TGI [57]: 4140 nM
